Results on three compounds are retold here after US10875872B2, “Heteroaryl amide compounds as sting activators” (Incyte Corporation, priority 2018, dated 2020).

SMILES strings stand for the structures. pEC50: −log10 of the molar value.

As a reminder, the pEC50 is the EC50 on a negative log10 scale, so that one unit is a factor of ten.

The assay relates to IRF3. Put plainly: IRF3 activation assay in THP-1 Dual cells (QUANTI-Blue reporter). In kind it is cell-based. Conditions: Homo sapiens, THP1-Dual, 24 hours incubation, culture supernatant, absorbance at 620-655 nm. As to the method:
THP-1 Dual Cells (Invivogen) were maintained in RPMI1640 medium with addition of 10% FBS, 100 μg/mL zeocin, 10 μg/mL blasticidin. Cells were added in a 96-well flat bottom assay plate at 100,000 per well in 100 μL complete RPMI medium. Test compounds were prepared by serial dilution in complete RPMI medium and 100 μL test compounds were transferred to each corresponding well. The assay plate was incubated at 37° C., 5% CO2 for 24 hours. After the overnight incubation, 20 μL of the culture supernatants were collected, followed by addition of 180 μL of QUANTI-Blue (Invivogen) to assess IRF3 activity. The amount of IRF3 activation was assessed by reading the absorbance at 620-655 nm with a microplate reader 2 hours later. The culture supernatant from the untreated THP-1 cells was used as the negative control. To determine the NF-κB activation, another 20 μL of culture supernatant were transferred to a 96-well white plate, followed by addition of 50 μL of Quanti-Lucim assay solution (Invivogen). The amount of NF-κB activation induced by the test compounds were determined by the luminescence above the untreated control. EC50 determination was performed by fitting the curve of percent control activity versus the log of the compound concentration using the GraphPad Prism 6.0 software.
`CCn1nc(C)cc1C(=O)Nc1nc2cc(C(N)=O)cc(C)c2n1C/C=C/Cn1c(NC(=O)c2cc(C)nn2CC)nc2cc(C(N)=O)c3ccoc3c21` [Example 2, (E)-1-(4-(5-carbamoyl-2-(1-ethyl-3-methyl-1H-pyrazole-5-carboxamido)-7-methyl-1H-benzo[d]imidazol-1-yl)but-2-en-1-yl)-2-(1-ethyl-3-methyl-1H-pyrazole-5-carboxamido)-1H-benzofuro[6,7-d]imidazole-5-carboxamide]: the pEC50 is > 7.00.

`CCn1nc(C)cc1C(=O)Nc1nc2cc(C(N)=O)cc(C)c2n1C/C=C/Cn1c(NC(=O)c2cc(C)nn2CC)nc2cc(C(N)=O)c3c(c21)OCCO3` [Example 1, (E)-1-(4-(5-carbamoyl-2-(1-ethyl-3-methyl-1H-pyrazole-5-carboxamido)-7-methyl-1H-benzo[d]imidazol-1-yl)but-2-en-1-yl)-2-(1-ethyl-3-methyl-1H-pyrazole-5-carboxamido)-7,8-dihydro-1H-[1,4]dioxino[2′,3′:3,4]benzo[1,2-d]imidazole-5-carboxamide] gave a negative logarithm of the EC50 (pEC50) of 6.00 to 6.30.

As for `CCn1nc(C)cc1C(=O)Nc1nc2cc(C(N)=O)cc(OCCCOC(=O)NCCC(=O)O)c2n1C/C=C/Cn1c(NC(=O)c2cc(C)nn2CC)nc2cc(C(N)=O)c3ccoc3c21` [Example 3, (E)-3-(((3-((5-carbamoyl-1-(4-(5-carbamoyl-2-(1-ethyl-3-methyl-1H-pyrazole-5-carboxamido)-1H-benzofuro[6,7-d]imidazol-1-yl)but-2-en-1-yl)-2-(1-ethyl-3-methyl-1H-pyrazole-5-carboxamido)-1H-benzo[d]imidazol-7-yl)oxy)propoxy)carbonyl)amino)propanoic acid], the pEC50 was > 7.00.
